Data: patent publication US7262267B1, “Polypeptide mediating cell permeability” (Island Pharmacueticals, Ltd., priority 1998, dated 2007)
Where no end group is shown, it is not given here.

Key:
[1] = system: c-Raf1 kinase; test: Inhibition of the TNFα-dependent activation of c-Raf1 kinase (immunocomplex test with MEK and γ-32P-ATP); assay type: cell-based; conditions: HeLa cells incubated 2 h with 2 μM polypeptide, stimulated 15 min with TNFα; FIG. 2
Source text: The detection of cell permeability mediated by CPP is shown by inhibition of the TNFα-dependent activation of c-Raf1 kinase. The activation of the c-Raf1 kinase is based on the interaction between the TNF receptor I (TNR-RI) and the adapter molecule Grb2. For this purpose, the SH3 domain of Grb2 interacts with a PLAP motive from the cytoplasmic domain of TNF-RI.
CPP is provided in the form of a fusion polypeptide. In this fusion polypeptide referred to as CPP-PLAP CPP, the amino acid sequence of FIG. 1 is present as N-terminus partner and a PLAP motive from the cytoplasmic domain of TNF-RI is present as C-terminus partner. A fusion polypeptide referred to as CPP-KLAP is also provided, which has a mutated PLAP motive.
HeLa cells are incubated for 2 h with 2 μM CPP-PLAP or CPP-KLAP (control) and stimulated for 15 min with 100 μ/ml TNFα. The activation of c-Raf1 kinase is determined by an immunocomplex test using MEK (Santa Cruz, Biotech) and y^32p-ATP as substrate (cf. FIG. 2).

[2] = system: 293 cells; test: Cell permeability: detection of the protein in the cytosolic fraction of 293 cells by Western blot; assay type: cell-based; conditions: 1 μM in medium, Western blot anti-hexa-His and anti-eGFP
Description: Detection of the cell permeability mediated by DHBV (duck hepatitis B virus)-CPP was made as follows: According to standard methods a fusion protein consisting of a hexa-His-Tag (6H), DHBV-CPP and eGFP (enhanced green fluorescent protein) was prepared in analogy to Example 1 in an E. coli expression system. The pQE vector system of the Quiagen company was used. This protein (DHBV42-53eGFP) was isolated. wt6HeGFP (fusion protein of 6 His and eGFP) was used for control experiments. Then, 293 cells were incubated in the presence of these proteins for 10 and 20 minutes. The proteins were added to the medium at a concentration of 1 μM. After 10 or 20 minutes, the cells were lyzed and the cytosolic fraction of the cells was isolated by ultracentrifugation.
The presence of DHBV42-53 eGFP in the cytosol fraction was detected by means of Western blot analysis using a hexa-His-tag-specific antibody (FIG. 6, lanes 1-4) (anti-hexa-His6 of Qiagen company) or an eGFP-specific antibody (anti-eGFP of Clontech company) (FIG. 6, lanes 5-8). A peroxidase-conjugated secondary antibody (anti-mouse HRP, anti-rabbit-HRP of Amersham company) was used for the detection.

| Substance | inhibition of the TNFα-dependent activation of c-Raf1 kinase [1] | internalization of the protein into the cell (cytosol) ([2]; after 10 min) | internalization of the protein into the cell (cytosol) ([2]; after 20 minutes) |
| --- | --- | --- | --- |
| CPP-PLAP: fusion polypeptide: amino acid sequence of FIG. 1 as N-terminus partner, PLAP motive from cytoplasmic domain of TNF-RI as C-terminus partner (PLSSIFSRIGDPTTTKPLAPNPSF) | fully inhibits | – | – |
| DHBV42-53-eGFP: fusion protein consisting of a hexa-His-Tag (6H), DHBV-CPP and eGFP (enhanced green fluorescent protein) (TIDHVLDHVQTM; not fully specified (C-terminus); also: fusion with hexa-His tag and eGFP, not in the chain) | – | can be observed | can be observed |
